# Several values for one entry are separate records, joined by “and”; a condition that tells them apart may be missing. Equal entries are not always repeated.
# Legend:
# [1] = molecular target: T1, CXCR3-PK2 (Homo sapiens, UniProt P49682); assay: β-arrestin 2 recruitment assay (PathHunter, DiscoveRx), CXCR3-PK2 construct; type: cell-based; settings: for Emax: % of CXCL11 mediated effect, read-out: CXCR3-PK2 efficacy (%) (converted); for Emax / CXCR3-PK2 pEC50 ± SEM: CXCR3-PK2; for CXCR3-PK2 pEC50 ± SEM: HEK293-T cells, PathHunter
# T1 construct: expressed in transfected cells
# T1 sequence (P49682 1-368): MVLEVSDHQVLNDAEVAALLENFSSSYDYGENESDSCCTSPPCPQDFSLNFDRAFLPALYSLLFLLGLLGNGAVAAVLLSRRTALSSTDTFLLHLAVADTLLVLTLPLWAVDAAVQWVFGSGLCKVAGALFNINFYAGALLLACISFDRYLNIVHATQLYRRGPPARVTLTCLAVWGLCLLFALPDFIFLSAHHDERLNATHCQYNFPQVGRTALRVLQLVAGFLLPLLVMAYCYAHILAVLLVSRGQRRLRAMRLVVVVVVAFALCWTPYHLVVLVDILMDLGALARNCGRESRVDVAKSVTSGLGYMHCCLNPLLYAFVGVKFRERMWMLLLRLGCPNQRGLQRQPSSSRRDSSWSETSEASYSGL
# Method: (§1) β-arrestin 2 recruitment assay: The measurement of β-arrestin recruitment was performed utilizing the PathHunter assay purchased from DiscoveRx (DiscoveRx, Birmingham, U.K.) according to the manufacturer's protocol. HEK293 cells stably expressing β-gal enzyme acceptor were transiently transfected with the ProLink (PK1) tagged wildtype CXCR3 receptor using the TransIT-293 transfection reagent from Mirus (purchased from MoBiTec, Goettingen, Germany). The assay was carried out in 384-well plates containing 2000 cells in 20 µL. After incubation at 37°C (5% CO2, 95% relative humidity) overnight, various concentrations of test compounds or CXCL11 (prepared in PBS, pH 7.4, containing 0.20% BSA) were added and the incubation continued for 4 h. Detection mix was then added and incubated for further 60 min at room temperature. Chemiluminescence was determined with a microplate reader Clariostar (BMG labtech, Ortenberg, Germany).
# (§2) The ability of the novel ligands according to the present invention to induce CXCR3-mediated β-arrestin 2 recruitment was investigated in the assay system PathHunter (DiscoveRx), which detects the recruitment of β-amestin 2 to the activated receptor using β-galactosidase (β-gal) enzyme fragment complementation. The inventors used two different ProLink tags, ProLink1 (PK1) and ProLink2 (PK2), of which PK2 has higher affinity for the enzyme acceptor to detect weak protein-protein interactions. The CXCR3-PK2 construct is readily able to detect the differences in the propensity of CXCL11 and CXCL10 to induce β-arrestin 2 recruitment at CXCR3. […] Table 3. Ability of the 46/VUF10661 based positive allosteric modulators to activate the CXCR3 as measured in the β-arrestin 2 recruitment assay (PathHunter, DiscoveRx).[a]
# To investigate the efficacy of identified partial agonists in the assay format, the inventors used the CXCR3-PK2 construct, which is characterized by higher sensitivity to detect β-arrestin 2 recruitment. The compounds which appeared as weak partial agonists under CXCR3-PK1 conditions appeared as strong partial agonists under CXCR3-PK2 conditions with the efficacy increased up to 80% (Table 4). FAUC1036 reached the efficacy of 66%. […] Table 4. Ability of the compound 5 based positive allosteric modulators to activate the CXCR3 as measured in the β-arrestin 2 recruitment assay (PathHunter, DiscoveRx).[a]
# [2] = molecular target: T2, CXCR3-PK1 (Homo sapiens, UniProt P49682); assay: β-arrestin 2 recruitment assay (PathHunter, DiscoveRx), CXCR3-PK1 construct; type: cell-based; settings: for Emax: read-out: CXCR3-PK1 efficacy (%) (converted); for CXCR3-PK1 pEC50 ± SEM: HEK293-T cells, PathHunter, two to three experiments in triplicate
# T2 construct: expressed in transfected cells; host or cells: HEK293 cells stably expressing beta-gal enzyme acceptor (PathHunter, DiscoveRx), transiently transfected
# T2 sequence (P49682 1-368): T1 sequence (P49682 1-368)
# Method: as §1, §2
# [3] = molecular target: T3, CXCR3 (Homo sapiens, UniProt P49682); assay: [35S]GTPγS incorporation assay; type: biochemical; settings: for Emax / CXCR3 Efficacy (%) ± SEM: % of CXCL11 mediated effect; for Emax: read-out: CXCR3 Efficacy (%) ± SEM; for CXCR3 pEC50 ± SEM: mean of three experiments in triplicate
# T3 construct: expressed in transfected cells; host or cells: HEK293 / HEK293T cells, stably transfected; membrane preparations
# T3 sequence (P49682 1-368): T1 sequence (P49682 1-368)
# Method: Membrane preparation for allosteric radioligand RAMX3 displacement and [^35S]GTPγS incorporation assays: The human embryonic kidney (HEK) cells stably expressing the human CXCR3 receptor were cultured in 150-mm cell culture plates in DMEM/F-12 supplemented with 10% fetal bovine serum (FBS), 2 mM L-glutamine, 1% penicillin-streptomycin, 300 µgmL^-1 Zeocin and incubated at 37 °C in a humid atmosphere with 5% CO2. At 100% confluency cells were washed with PBS twice, treated with Tris EDTA buffer (10 mM Tris, 0.5 mM EDTA, 5 mM KCl, 140 mM NaCl, pH 7.4), and harvested using a cell scraper. Cells were pelleted at 1100×g for 8 min at 4 °C, resuspended in Tris-EDTA-MgCl2 buffer (50mM Tris, 5 mM EDTA, 1.5 mM CaCl2, 5 mM MgCl2, 5 mM KCl, 120 mM NaCl, pH 7.4) and followed by lysis with an Ultra-Turrax. After centrifugation at 50,000•g, at 4°C for 18 min the membranes were resuspended in the binding buffer (50 mM Tris, 1 mM EDTA, 5 mM MgCl2 and subsequently homogenized with a glass-Teflon homogenizer (20 strokes). The homogenized membranes were shock-frozen in liquid nitrogen and stored at -80°C. The protein concentration was determined with the Lowry method with bovine serum albumin used as a standard.^35
# [^35S]GTPγS incorporation assay: The [^35S]GTPγS incorporation assay was performed on membrane preparations of stably transfected HEK293 cells that expressed the CXCR3 receptor. The assay was carried out in 96-well plates at the final volume of 200 µL. The incubation buffer contained 20 mM HEPES, 10 mM MgCl2•6H20,100 mM NaCl and 100 mg/L saponin (pH 7.4). Membranes (30 µgmL^-1 of membrane protein), various concentrations of test compound and CXCL11, and 1 µM GDP were preincubated in the absence of [^35S]GTPγS for 30 min at 37 °C. After the addition of 0.10 nM [^35S]GTPγS membranes were incubated for additional 30 min at 37 °C. Incubation was terminated by filtration through Whatman GF/B filters soaked with ice cold PBS. The filter-bound radioactivity was measured as described above. Three to four experiments per compound were performed with each concentration in triplicate.
# The activation of G proteins was explored in terms of CXCR3 mediated [^35S]GTPγS incorporation. In the [^35S]GTPγS incorporation assay the membrane preparations of HEK293T cells stably expressing CXCR3 were used. The activation of G proteins was monitored as the incorporation of [^35S]GTPγS and thus increase in the incorporated radioactivity. The potency and efficacy of the novel compounds was first compared to the reference compound 46/VUF10661. […] Table 1. The ability of the 46/VUF10661 based positive allosteric modulators to activate CXCR3 as measured in the [35S]GTPγS incorporation assay.[a]
# [4] = % of CXCL11 mediated effect, CXCR3-PK1
# [5] = membrane preparations of HEK293T stably expressing CXCR3
SMILES,Emax [1],CXCR3-PK2 pEC50 ± SEM [1],"Emax [2, 4]",CXCR3-PK1 pEC50 ± SEM ([2]; CXCR3-PK1),"Emax [3, 5]","CXCR3 pEC50 ± SEM [3, 5]","β-arrestin 2 recruitment, intrinsic agonism (result in words) [2]","CXCR3 Efficacy (%) ± SEM [3, 5]",β-arrestin 2 recruitment agonism using PK2 tag (result in words) [1],CXCR3 mediated G protein activation (result in words) ([3]; [35S]GTPγS incorporation),"CXCR3-PK1 efficacy (%) [2, 4]","EC50 ([3]; membrane preparations of HEK293T stably expressing CXCR3, read-out: EC50 / potency in [35S]GTPγS incorporation)"
"N[C@H](CCCCNC(=O)[C@@H]1Cc2ccccc2CN1C(=O)CCC(=O)c1ccccc1)C(=O)NCC(c1ccccc1)c1ccccc1.O=C(O)C(F)(F)F [Compound 35, (R)-1-((2,2-diphenylethyl)amino)-1-oxo-6-((S)-2-(4-oxo-4-phenylbutanoyl)-1,2,3,4-tetrahydroisoquinoline-3-carboxamido)hexan-2-aminium 2,2,2-trifluoroacetate]",79%,6.52±0.43,28%,7.16±0.33,25 ± 4%,8.01±0.31,,,,,,
"CC(C)(C)OC(=O)N[C@@H](CCCCNC(=O)[C@@H]1Cc2ccccc2CN1C(=O)CCC(=O)O)C(=O)NCC(c1ccccc1)c1ccccc1 [Compound 27, 4-((S)-3-(((S)-5-((tert-butoxycarbonyl)amino)-6-((2,2-diphenylethyl)amino)-6-oxohexyl)carbamoyl)-3,4-dihydroisoquinolin-2(1H)-yl)-4-oxobutanoic acid]",,No effect,,No effect,,No effect,no agonistic effect,No effect,,,,
"NCCCC[C@@H](NC(=O)[C@@H]1Cc2ccccc2CN1C(=O)CCC(=O)c1ccccc1)C(=O)NCC(c1ccccc1)c1ccccc1.O=C(O)C(F)(F)F [Compound 47, (R)-6-((2,2-diphenylethyl)amino)-6-oxo-5-((S)-2-(4-oxo-4-phenylbutanoyl)-1,2,3,4-tetrahydroisoquinoline-3-carboxamido)hexan-1-aminium 2,2,2-trifluoroacetate]",198%,6.12±0.11,108%,5.96±0.08,85 ± 5%,5.94±0.09,,,,,,
"CC(C)(C)OC(=O)N[C@H](CCCCNC(=O)[C@@H]1Cc2ccccc2CN1C(=O)CCC(=O)c1ccccc1)C(=O)NCC(c1ccccc1)c1ccccc1 [Compound 34, Tert-butyl ((R)-1-((2,2-diphenylethyl)amino)-1-oxo-6-((S)-2-(4-oxo-4-phenylbutanoyl)-1,2,3,4-tetrahydroisoquinoline-3-carboxamido)hexan-2-yl)carbamate]",88%,6.86±0.19,16%,6.95±0.50,,No effect,,No effect,reached the levels of full agonism,failed to induce CXCR3 mediated G protein activation,,
"CC(C)(C)OC(=O)NCCCC[C@@H](NC(=O)[C@@H]1Cc2ccccc2CN1C(=O)CCC(=O)c1ccccc1)C(=O)NCC(c1ccccc1)c1ccccc1 [Compound 45, Tert-butyl ((R)-6-((2,2-diphenylethyl)amino)-6-oxo-5-((S)-2-(4-oxo-4-phenylbutanoyl)-1,2,3,4-tetrahydroisoquinoline-3-carboxamido)hexyl)carbamate]",30%,7.23±0.69,~36%,6.63±0.17,33 ± 7%,5.97±0.34,,,,,,
"CC(C)(C)OC(=O)N[C@@H](CCCCNC(=O)[C@@H]1Cc2ccccc2CN1)C(=O)NCC(c1ccccc1)c1ccccc1 [Compound 5, Tert-butyl ((S)-1-((2,2-diphenylethyl)amino)-1-oxo-6-((S)-1,2,3,4-tetrahydroisoquinoline-3-carboxamido)hexan-2-yl)carbamate]",79%,6.71±0.33,31%,6.50±0.17,34%,5.7 ± 0.34 and 5.66±0.34,,34±8%,,,31±2%,2.2 µM
"N[C@@H](CCCCNC(=O)[C@@H]1Cc2ccccc2CN1)C(=O)NCC(c1ccccc1)c1ccccc1.O=C(O)C(F)(F)F.O=C(O)C(F)(F)F [Compound 28, (S)-3-(((S)-5-ammonio-6-((2,2-diphenylethyl)amino)-6-oxohexyl)carbamoyl)-1,2,3,4-tetrahydroisoquinolin-2-ium 2,2,2-trifluoroacetate]",85%,6.55±0.26,14%,6.80±0.45,40 ± 7%,5.65±0.23,,,,,,
"CC(=O)CCC(=O)N1Cc2ccccc2C[C@H]1C(=O)NCCCC[C@H](NC(=O)OC(C)(C)C)C(=O)NCC(c1ccccc1)c1ccccc1 [Compound 12, Tert-butyl((S)-1-((2,2-diphenylethyl)amino)-1-oxo-6-((S)-2-(4-oxopentanoyl)-1,2,3,4-tetrahydroisoquinoline-3-carboxamido)hexan-2-yl)carbamate]",63%,6.64±0.33,34%,6.78±0.17,,No effect,,No effect,,,,

# — patent EP3156398A1, “AGONISTS OF THE CHEMOKINE RECEPTOR CXCR3” (Friedrich-Alexander-Universität Erlangen-Nürnberg, priority 2015, dated 2017)
